Test results from patent US9113629B2, “4-amino-6-(4-substituted-phenyl)-picolinates and 6-amino-2-(4-substituted-phenyl)-pyrimidine-4-carboxylates and their use as herbicides” (DOW AGROSCIENCES LLC, priority 2013, dated 2015).
Like-named read-outs stand apart in the source and are kept apart here.

Tests used:
[1] = tested on: Key Broadleaf Weed and Crop Species; experiment: Post-emergent Test II herbicidal activity (Table 5); format: in vivo; conditions: post-emergence, 336 h, 14 days after application; for pest or weed control at 70 g/ha: application rate 70 g ai/ha; for pest or weed control at 140 g/ha: application rate 140 g ai/ha
In short: (§1)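 Spray rates: a highest rate plus ½×, ¼×, ⅛×, 1/16×, all delivered at 187 L/ha to plants at the first–second true leaf stage. Readout is a visual percent injury score at 14 d, where 100 means complete kill.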

[2] = tested on: Key Grass and Sedge Weeds as well as Grass Crops; experiment: Post-emergent Test II herbicidal activity (Table 6); format: in vivo; conditions: post-emergence, 336 h
In short: as §1

[3] = ABUTH: velvetleaf (Abutilon theophrasti), read-out: Visual Growth Reduction (%) 14 Days After Application, ABUTH
[4] = AMARE: redroot pigweed (Amaranthus retroflexus), read-out: Visual Growth Reduction (%) 14 Days After Application, AMARE
[5] = BRSNN: oilseed-rape, canola (Brassica napus), read-out: Visual Growth Reduction (%) 14 Days After Application, BRSNN
[6] = CHEAL: lambsquarters (Chenopodium album), read-out: Visual Growth Reduction (%) 14 Days After Application, CHEAL
[7] = EPHHL: wild poinsettia (Euphorbia heterophylla), read-out: Visual Growth Reduction (%) 14 Days After Application, EPHHL
[8] = HELAN: sunflower (Helianthus annuus), read-out: Visual Growth Reduction (%) 14 Days After Application, HELAN
[9] = VIOTR: wild pansy (Viola tricolor), read-out: Visual Growth Reduction (%) 14 Days After Application, VIOTR
[10] = CYPES: yellow nutsedge (Cyperus esculentus), 70 g ai/ha, read-out: Visual Growth Reduction (%) 14 Days After Application, CYPES
[11] = CYPES: yellow nutsedge (Cyperus esculentus), 140 g ai/ha, read-out: Visual Growth Reduction (%) 14 Days After Application, CYPES
[12] = DIGSA: crabgrass (Digitaria sanguinalis), 70 g ai/ha, read-out: Visual Growth Reduction (%) 14 Days After Application, DIGSA
[13] = DIGSA: crabgrass (Digitaria sanguinalis), 140 g ai/ha, read-out: Visual Growth Reduction (%) 14 Days After Application, DIGSA
[14] = ECHCG: barnyardgrass (Echinochloa crus-galli), 140 g ai/ha, read-out: Visual Growth Reduction (%) 14 Days After Application, ECHCG
[15] = ORYSA: rice (Oryza sativa), crop, 70 g ai/ha, read-out: Visual Growth Reduction (%) 14 Days After Application, ORYSA
[16] = ORYSA: rice (Oryza sativa), crop, 140 g ai/ha, read-out: Visual Growth Reduction (%) 14 Days After Application, ORYSA
[17] = SETFA: giant foxtail (Setaria faberi), 70 g ai/ha, read-out: Visual Growth Reduction (%) 14 Days After Application, SETFA
[18] = SETFA: giant foxtail (Setaria faberi), 140 g ai/ha, read-out: Visual Growth Reduction (%) 14 Days After Application, SETFA
[19] = SORVU: grain sorghum (Sorghum vulgare), 70 g ai/ha, read-out: Visual Growth Reduction (%) 14 Days After Application, SORVU
[20] = SORVU: grain sorghum (Sorghum vulgare), 140 g ai/ha, read-out: Visual Growth Reduction (%) 14 Days After Application, SORVU
[21] = TRZSS (wheat, Triticum aestivum), crop, 70 g ai/ha, read-out: Visual Growth Reduction (%) 14 Days After Application, TRZSS
[22] = TRZSS (wheat, Triticum aestivum), crop, 140 g ai/ha, read-out: Visual Growth Reduction (%) 14 Days After Application, TRZSS
[23] = ZEAMX: maize, corn (Zea mays), crop, 70 g ai/ha, read-out: Visual Growth Reduction (%) 14 Days After Application, ZEAMX
[24] = ZEAMX: maize, corn (Zea mays), crop, 140 g ai/ha, read-out: Visual Growth Reduction (%) 14 Days After Application, ZEAMX

| SMILES | pest or weed control at 70 g/ha [1, 3] [%] | pest or weed control at 140 g/ha [1, 3] [%] | pest or weed control at 70 g/ha [1, 4] [%] | pest or weed control at 140 g/ha [1, 4] [%] | pest or weed control at 70 g/ha [1, 5] [%] | pest or weed control at 140 g/ha [1, 5] [%] | pest or weed control at 70 g/ha [1, 6] [%] | pest or weed control at 140 g/ha [1, 6] [%] | pest or weed control at 70 g/ha [1, 7] [%] | pest or weed control at 140 g/ha [1, 7] [%] | pest or weed control at 70 g/ha [1, 8] [%] | pest or weed control at 140 g/ha [1, 8] [%] | pest or weed control at 70 g/ha [1, 9] [%] | pest or weed control at 140 g/ha [1, 9] [%] | pest or weed control at 70 g/ha [2, 10] [%] | pest or weed control at 140 g/ha [2, 11] [%] | pest or weed control at 70 g/ha [2, 12] [%] | pest or weed control at 140 g/ha [2, 13] [%] | pest or weed control at 140 g/ha [2, 14] [%] | melting point [°C] | further results |
| --- | --- | --- | --- | --- | --- | --- | --- | --- | --- | --- | --- | --- | --- | --- | --- | --- | --- | --- | --- | --- | --- |
| COC(=O)c1nc(-c2ccc(C(F)(F)F)c(F)c2F)c(F)c(N)c1Cl [Compound 149] | 95 to 100 | 95 to 100 | 95 to 100 | 95 to 100 | 85 to 94 | 95 to 100 | 95 to 100 | 95 to 100 | 95 to 100 | 95 to 100 | 95 to 100 | 95 to 100 | 85 to 94 | 85 to 94 | 95 to 100 | 95 to 100 | 30 to 44 | 30 to 44 | 95 to 100 | 131 to 132 | pest or weed control at 70 g/ha ([2]; ECHCG: barnyardgrass (Echinochloa crus-galli), 70 g ai/ha, read-out: Visual Growth Reduction (%) 14 Days After Application, ECHCG): 95 to 100%; pest or weed control at 70 g/ha [2, 15]: 0 to 29%; pest or weed control at 140 g/ha [2, 16]: 0 to 29%; pest or weed control at 70 g/ha [2, 17]: 30 to 44%; pest or weed control at 140 g/ha [2, 18]: 30 to 44%; pest or weed control at 70 g/ha [2, 19]: 95 to 100%; pest or weed control at 140 g/ha [2, 20]: 95 to 100%; pest or weed control at 70 g/ha [2, 21]: 30 to 44%; pest or weed control at 140 g/ha [2, 22]: 45 to 59%; pest or weed control at 70 g/ha [2, 23]: 75 to 84%; pest or weed control at 140 g/ha [2, 24]: 85 to 94% |
| COC(=O)c1nc(-c2ccc(OC(F)F)c(F)c2)c(F)c(N)c1Cl [Compound 152] | 85 to 94 | 85 to 94 | 85 to 94 | 85 to 94 | 85 to 94 | 85 to 94 | 85 to 94 | 85 to 94 | 95 to 100 | 95 to 100 | 75 to 84 | 85 to 94 | 0 to 29 | 0 to 29 | 60 to 74 | 95 to 100 | 45 to 59 | 75 to 84 | 85 to 94 | 112 to 114 | pest or weed control at 70 g/ha [2, 15]: 0 to 29%; pest or weed control at 140 g/ha [2, 16]: 0 to 29%; pest or weed control at 70 g/ha [2, 17]: 0 to 29%; pest or weed control at 140 g/ha [2, 18]: 45 to 59%; pest or weed control at 70 g/ha [2, 19]: 45 to 59%; pest or weed control at 140 g/ha [2, 20]: 45 to 59%; pest or weed control at 70 g/ha [2, 21]: 0 to 29%; pest or weed control at 140 g/ha [2, 22]: 0 to 29%; pest or weed control at 70 g/ha [2, 23]: 95 to 100%; pest or weed control at 140 g/ha [2, 24]: 95 to 100% |
| C#Cc1ccc(-c2nc(N)c(OC)c(C(=O)O)n2)c(F)c1F [Compound 154] | 0 to 29 | 45 to 59 | 0 to 29 | 0 to 29 | 0 to 29 | 60 to 74 | 0 to 29 | 45 to 59 | 95 to 100 | 95 to 100 | 75 to 84 | 75 to 84 | 0 to 29 | 0 to 29 | – | – | – | – | – | 142 to 144 | pest or weed control at 70 g/ha ([2]; Triticum aestivum, TRZSS (wheat), application rate 70 g ai/ha, read-out: Visual Growth Reduction (%) 14 Days After Application, TRZSS): 0 to 29%; pest or weed control at 140 g/ha ([2]; Triticum aestivum, TRZSS (wheat), application rate 140 g ai/ha, read-out: Visual Growth Reduction (%) 14 Days After Application, TRZSS): 0 to 29%; pest or weed control at 70 g/ha ([2]; CYPES: yellow nutsedge (Cyperus esculentus), application rate 70 g ai/ha, read-out: Visual Growth Reduction (%) 14 Days After Application, CYPES): 0 to 29%; pest or weed control at 140 g/ha ([2]; CYPES: yellow nutsedge (Cyperus esculentus), application rate 140 g ai/ha, read-out: Visual Growth Reduction (%) 14 Days After Application, CYPES): 0 to 29%; pest or weed control at 70 g/ha ([2]; DIGSA: crabgrass (Digitaria sanguinalis), application rate 70 g ai/ha, read-out: Visual Growth Reduction (%) 14 Days After Application, DIGSA): 0 to 29%; pest or weed control at 140 g/ha ([2]; DIGSA: crabgrass (Digitaria sanguinalis), application rate 140 g ai/ha, read-out: Visual Growth Reduction (%) 14 Days After Application, DIGSA): 0 to 29%; pest or weed control at 70 g/ha ([2]; ECHCG: barnyardgrass (Echinochloa crus-galli), application rate 70 g ai/ha, read-out: Visual Growth Reduction (%) 14 Days After Application, ECHCG): 45 to 59%; pest or weed control at 140 g/ha ([2]; ECHCG: barnyardgrass (Echinochloa crus-galli), application rate 140 g ai/ha, read-out: Visual Growth Reduction (%) 14 Days After Application, ECHCG): 45 to 59%; pest or weed control at 70 g/ha ([2]; ORYSA: rice (Oryza sativa), application rate 70 g ai/ha, read-out: Visual Growth Reduction (%) 14 Days After Application, ORYSA): 0 to 29%; pest or weed control at 140 g/ha ([2]; ORYSA: rice (Oryza sativa), application rate 140 g ai/ha, read-out: Visual Growth Reduction (%) 14 Days After Application, ORYSA): 0 to 29%; pest or weed control at 70 g/ha ([2]; SETFA: giant foxtail (Setaria faberi), application rate 70 g ai/ha, read-out: Visual Growth Reduction (%) 14 Days After Application, SETFA): 0 to 29%; pest or weed control at 140 g/ha ([2]; SETFA: giant foxtail (Setaria faberi), application rate 140 g ai/ha, read-out: Visual Growth Reduction (%) 14 Days After Application, SETFA): 0 to 29%; pest or weed control at 70 g/ha ([2]; SORVU: grain sorghum (Sorghum vulgare), application rate 70 g ai/ha, read-out: Visual Growth Reduction (%) 14 Days After Application, SORVU): 0 to 29%; pest or weed control at 140 g/ha ([2]; SORVU: grain sorghum (Sorghum vulgare), application rate 140 g ai/ha, read-out: Visual Growth Reduction (%) 14 Days After Application, SORVU): 0 to 29%; pest or weed control at 70 g/ha ([2]; ZEAMX: maize, corn (Zea mays), application rate 70 g ai/ha, read-out: Visual Growth Reduction (%) 14 Days After Application, ZEAMX): 0 to 29%; pest or weed control at 140 g/ha ([2]; ZEAMX: maize, corn (Zea mays), application rate 140 g ai/ha, read-out: Visual Growth Reduction (%) 14 Days After Application, ZEAMX): 0 to 29% |
